Like-named read-outs stand apart in the source and are kept apart here.
Experiments:
COVID-19 patients [1] = assay: Observational comparison of representation of metabolic regulator users in hospital records versus COVID-19 cases (chi-squared / IRR, Table 3); type: in vivo, human; details: for representation among COVID-19 severity indicators (hospitalization, ICU admission, deaths): chi-squared test vs general hospital medical records
SARS-CoV-2 = assay: Viral load quantitative real-time PCR in SARS-CoV-2 infected NHBE cells under drug treatment; type: cell-based; details: for reduction of SARS-CoV-2 viral load: 5 days of treatment, viral RNA vs DMSO vehicle, n=3
[2] = system: SARS-CoV-2 infected lung cells; type: cell-based; details: 5 days exposure, vs DMSO-treated and mock-infected controls
[3] = system: SARS-CoV-2 infected primary lung cells; type: cell-based, human
[4] = system: SARS-CoV-2 infected lung cells; assay: Cell viability (Hoechst staining) of SARS-CoV-2 infected lung cells exposed to drugs; type: cell-based, human; details: 5 days exposure
Method: Drug Treatments: Approximately 5×10^5 NHBE cells were infected with SARS-CoV-2 at a MOI of 2 in bronchial epithelial growth media. […] After 24 h, the media was collected and changed to bronchial epithelial growth media with the respective drug at the concentration listed above. Then, every 48 hours media was collected and replenished. The media was stored at −80° C. immediately after removal. Culture viability was assessed at the end the experiment using Hoechst staining.

COVID-19 patients [5] = assay: Retrospective cohort of hospitalized COVID-19 patients taking metabolic regulators, outcomes before PSM (Table 2); type: in vivo, human; details: users before PSM
Method: Israeli Study Design and Participants: A retrospective, multi-center study was conducted in Hadassah and Ichilov medical centers. A total of 20,153 participants were diagnosed positive for SARS-COV-2 following WHO interim guidance (World Health Organization, 2020). Only patients hospitalized and diagnosed with COVID-19 were included. Participants with incomplete electronic medical records, aged less than 18, with pregnancy or severe medical conditions, including acute lethal organ injury (i.e., acute coronary syndrome, acute stroke, and severe acute pancreatitis) were excluded. The flowchart for patient inclusion is illustrated in FIG. 4J. Participants were admitted between Mar. 1, 2020, and Aug. 31, 2020 to either the Hadassah Medical Center in Jerusalem or the Tel Aviv Sourasky Medical Center. The final date of the follow up was Sep. 28, 2020. The study protocols were approved by the institutional ethics committee. Patient informed consent was waived by each ethics committee. Demographic and clinical characteristics, vital signs, laboratory tests, radiological reports, therapeutic interventions, and outcome data were extracted from electronic medical records using a standardized data collection. The laboratory data included a routine blood test, serum biochemical markers reflecting liver injury, kidney injury, and cardiac injury, lipid profile, IL-6, CRP, procalcitonin, and D-dimer were collected during hospitalization. In-hospital medication and life support intervention included the classification of the drugs, the dosage, the course of treatment, and using respiratory support were also extracted from medical records.

COVID-19 patients [6] = assay: Propensity score-matched analysis of hospitalized COVID-19 patients, outcomes after PSM (Table 5); type: in vivo, human
COVID-19 patients [7] = assay: Secondary outcomes and organ failure, incidence rate ratios and Cox hazard ratios (Table 4); type: in vivo, human
Text: Any death that occurred was documented.

COVID-19 patients [8] = details: 21-day hospitalization, vs PSM-matched controls
Method: In clinical data, continuous variables with non-normal distributions were expressed as median [IQR]. Categorical variables were expressed as number and percentage (%). […] Comparisons between groups were performed with Mann-Whitney U test for nonparametric variables and Fisher's exact test or χ2 test for categorical variables. Person-time data (Incidence) of two groups with different exposures may be expressed as a difference between incidence rates or as a ratio of incidence rates (IRRs). The IRRs of endpoint outcomes were calculated to estimate the incidence difference in absolute change in the incidence of two comparison groups. The cumulative rates of death were compared using the Kaplan-Meier curves. Dynamic changes of inflammatory factors tracking from day 0 to day 28 after admission were depicted using the Lowess model. A two-side a less than 0.05 was considered to define statistical significance. Data were analyzed in R-3.6.3 (R Foundation for Statistical Computing, Vienna, Austria) and SPSS Statistics (version 23.0, IBM, Armonk, N.Y., USA).
To study the effects of metabolic regulators on COVID-19 progression the dynamic changes in circulating C-reactive protein (CRP), neutrophils, and lymphocytes markers of SARS-CoV-2 induced immunoinflammatory response were analyzed.

[9] = physiological concentrations (Cmax): 20 μM rosiglitazone, 5 μM empagliflozin, 1 mM metformin
[10] = vs share in 249,939 patient records 2015-2020
[11] = vs PSM-matched non-treatment group
[12] = adjusted hazard ratio, mixed-effect Cox model, treatment versus non-treatment group
[13] = incidence rate in treatment group (first figure of 'x versus y')
[14] = incidence rate ratio, treatment versus non-treatment group

## CC(C)(Oc1ccc(C2CC2(Cl)Cl)cc1)C(=O)O (stereo not shown) [ciprofibrate]
COVID-19 patients [1]
  representation among COVID-19 severity indicators (hospitalization, ICU admission, deaths): underrepresented in ICU admissions and deaths

## CCCc1nc2c(C)cc(-c3nc4ccccc4n3C)cc2n1Cc1ccc(-c2ccccc2C(=O)O)cc1 [telmisartan]
COVID-19 patients [1]
  representation among COVID-19 severity indicators (hospitalization, ICU admission, deaths): over-represented in ICU admission and deaths

## CN(CCOc1ccc(CC2SC(=O)NC2=O)cc1)c1ccccn1 (stereo not shown) [Rosiglitazone]
SARS-CoV-2
  effect on SARS-CoV-2 infected primary cells (FIG. 4C-G): no effect

## Clc1ccc(C(OCCN2CCCCC2)c2ccccc2)cc1 (stereo not shown) [cloperastine]
SARS-CoV-2; 10 μM
  reduction of SARS-CoV-2 viral load: 3 fold
[2]
  phospholipid accumulation / lipid content: did not result in a reduction of lipid content
[3]; Cmax concentration, infected primary cells
  glycolytic index / increase in glycolysis: did not result in a reduction of lipid content or change in the glycolytic index
[4]
  cell viability: without affecting cell viability

## CN(C)C(=N)N=C(N)N [metformin]
SARS-CoV-2; [9]
  effect on SARS-CoV-2 infected primary cells (FIG. 4C-G): no effect
COVID-19 patients [1]
  representation among COVID-19 severity indicators (hospitalization, ICU admission, deaths): significant over-representation
COVID-19 patients [1]; of 100 COVID-19 deceased
  COVID-19 Deceased, number of patients taking the drug: 13
  COVID-19 Deceased, share of patients taking the drug: 13.00%
COVID-19 patients [1]; of 312 COVID-19 ICU patients
  COVID-19 ICU, number of patients taking the drug: 42
  COVID-19 ICU, share of patients taking the drug: 13.46%
COVID-19 patients [1]; of 1,531 hospitalized COVID-19 cases
  COVID-19 Hospitalization, share of patients taking the drug: 8.82%
COVID-19 patients [1]; of 1,531 hospitalized COVID-19 cases, adults over 40
  COVID-19 Hospitalization, number of patients taking the drug: 135
COVID-19 patients [1]; [10]
  IRR, COVID-19 Deceased: 1.85
  IRR, COVID-19 Hospitalization: 1.26
COVID-19 patients [5]
  Follow-up days, median: 5.0 days
  High Flow Oxygen, %: (19%)
  ICU admission, %: (30.7%)
  Mechanically Ventilated/ECMO, %: (12.44%)
  Non-invasive positive pressure ventilation, %: (7.3%)
  Oxygen Supplementation, %: (38%)
COVID-19 patients [6]; median, drug users after PSM
  Follow-up days, median (IQR): 4.8 days
COVID-19 patients [6]; share of drug users after PSM
  High Flow Oxygen, %: (15.6%)
  ICU admission, %: (16.3%)
  Mechanically Ventilated/ECMO, %: (10.4%)
  Non-invasive positive pressure ventilation, %: (2.2%)
  Oxygen Supplementation, %: (42.2%)
COVID-19 patients [6]; [11]
  ICU admission rates: higher ICU admission rate and respiratory interventions
  length of hospitalization: longer hospitalizations
  mortality rates: higher mortality rates
  respiratory intervention rates: higher ICU admission rate and respiratory interventions
COVID-19 patients [7]; [12]
  aHR, ICU admission: 1.1
  aHR, acute cardiac injury: 1.1
  aHR, acute kidney injury: 0.48
  aHR, acute liver injury: 0.76
  aHR, invasive mechanical ventilation: 1.3
  aHR, septic shock: 1.6
COVID-19 patients [7]; [13]
  IR, ICU admission: 0.37 versus 0.31 100-person-day
  IR, acute cardiac injury: 0.25 versus 0.36 100-person-day
  IR, acute kidney injury: 0.18 versus 0.37 100-person-day
  IR, acute liver injury: 0.05 versus 0.11 100-person-day
  IR, septic shock: 0.16 versus 0.12 100-person-day
COVID-19 patients [7]; incidence rate in treatment group (first figure of 'x versus y'; second is the non-treatment group)
  IR, invasive mechanical ventilation: 0.15 versus 0.12 100-person-day
COVID-19 patients [7]; [14]
  IRR, ICU admission: 1.2
  IRR, acute cardiac injury: 0.69
  IRR, acute kidney injury: 0.47
  IRR, acute liver injury: 0.43
  IRR, invasive mechanical ventilation: 1.3
  IRR, septic shock: 1.3
COVID-19 patients [8]
  circulating CRP levels (inflammation): no significant differences
  lymphocyte counts: lower lymphocyte count during the recovery period
  neutrophil counts: lower initial neutrophil counts but relativity similar response to their PSM-matched controls

## OC[C@H]1O[C@@H](c2ccc(Cl)c(Cc3ccc(O[C@H]4CCOC4)cc3)c2)[C@H](O)[C@@H](O)[C@@H]1O [empagliflozin]
SARS-CoV-2; [9]
  effect on SARS-CoV-2 infected primary cells (FIG. 4C-G): no effect

## CC(C)OC(=O)C(C)(C)Oc1ccc(C(=O)c2ccc(Cl)cc2)cc1 [fenofibrate]
SARS-CoV-2; 20 μM fenofibrate
  reduction of SARS-CoV-2 viral load: 2 logs
[3]; SARS-CoV-2 infected primary lung cells, n=3, p<0.01
  reduction of lactate to glucose ratio: 60%
[4]
  cell viability: without affecting cell viability

— patent US20230190745A1, “USE OF METABOLIC REGULATORS FOR THE TREATMENT OF COVID-19” (YISSUM RESEARCH DEVELOPMENT COMPANY OF THE HEBREW …, priority 2020, published 2023)
